Measurements reported in PubChem BioAssay (NCI).
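Interpolation was linear, between the two tested concentrations surrounding the appropriate level; five concentrations were tested over 48 hours in 96-well plates. The concentration for full growth arrest is given as TGI.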

Key:
Assay in all cases: inhibition of tumour cell growth, NCI panel, 48 h
U251 CNS = tested on: U251 CNS
OVCAR-4 ovarian = tested on: OVCAR-4 ovarian
786-0 renal = tested on: 786-0 renal
HS 578T breast = tested on: HS 578T breast
A549 NSCLC = tested on: A549 NSCLC
NCI-H522 lung = tested on: NCI-H522 lung
PC-3 prostate = tested on: PC-3 prostate
COLO 205 colon = tested on: COLO 205 colon
TK-10 renal = tested on: TK-10 renal
SK-MEL-28 melanoma = tested on: SK-MEL-28 melanoma
ACHN renal = tested on: ACHN renal
EKVX NSCLC = tested on: EKVX NSCLC
SN12C renal = tested on: SN12C renal
SF-268 CNS = tested on: SF-268 CNS
CCRF-CEM leukemia = tested on: CCRF-CEM leukemia
BT-549 breast = tested on: BT-549 breast
MDA-N = tested on: MDA-N
HOP-62 NSCLC = tested on: HOP-62 NSCLC
MALME-3M melanoma = tested on: MALME-3M melanoma
MDA-MB-231 breast = tested on: MDA-MB-231 breast
RXF 393 renal = tested on: RXF 393 renal
SR leukemia = tested on: SR leukemia
M14 melanoma = tested on: M14 melanoma
SK-MEL-2 melanoma = tested on: SK-MEL-2 melanoma
KM12 colon = tested on: KM12 colon
SW-620 colon = tested on: SW-620 colon
SNB-19 CNS = tested on: SNB-19 CNS
OVCAR-8 ovarian = tested on: OVCAR-8 ovarian
NCI-H226 lung = tested on: NCI-H226 lung
NCI-H23 lung = tested on: NCI-H23 lung
SK-MEL-5 melanoma = tested on: SK-MEL-5 melanoma
HL-60(TB) leukemia = tested on: HL-60(TB) leukemia
OVCAR-3 ovarian = tested on: OVCAR-3 ovarian
MCF7 breast = tested on: MCF7 breast
DU-145 prostate = tested on: DU-145 prostate
HOP-92 NSCLC = tested on: HOP-92 NSCLC
UACC-257 melanoma = tested on: UACC-257 melanoma
T-47D breast = tested on: T-47D breast
IGROV1 ovarian = tested on: IGROV1 ovarian
HT29 colon = tested on: HT29 colon
NCI/ADR-RES ovarian = tested on: NCI/ADR-RES ovarian
NCI-H460 lung = tested on: NCI-H460 lung
LOX IMVI melanoma = tested on: LOX IMVI melanoma
SF-539 CNS = tested on: SF-539 CNS
SF-295 CNS = tested on: SF-295 CNS
MDA-MB-435 = tested on: MDA-MB-435
SK-OV-3 ovarian = tested on: SK-OV-3 ovarian
HCC-2998 colon = tested on: HCC-2998 colon
HCT-116 colon = tested on: HCT-116 colon
CAKI-1 renal = tested on: CAKI-1 renal
OVCAR-5 ovarian = tested on: OVCAR-5 ovarian
RPMI-8226 leukemia = tested on: RPMI-8226 leukemia
UO-31 renal = tested on: UO-31 renal
HCT-15 colon = tested on: HCT-15 colon
MOLT-4 leukemia = tested on: MOLT-4 leukemia
UACC-62 melanoma = tested on: UACC-62 melanoma
A498 renal = tested on: A498 renal
K-562 leukemia = tested on: K-562 leukemia
SNB-75 CNS = tested on: SNB-75 CNS

CC12CC3(O)OC(O1)C1(COC(=O)c4ccccc4)C3CC21OC1OC(CO)C(O)C(O)C1O (centres undefined)
TGI (U251 CNS): > 100 µM
TGI (OVCAR-4 ovarian): > 100 µM
TGI (786-0 renal): > 100 µM
TGI (HS 578T breast): > 100 µM
TGI (A549 NSCLC): > 100 µM
TGI (NCI-H522 lung): > 100 µM
TGI (PC-3 prostate): > 100 µM
TGI (COLO 205 colon): > 100 µM
TGI (TK-10 renal): > 100 µM
TGI (SK-MEL-28 melanoma): > 100 µM
TGI (ACHN renal): > 100 µM
TGI (EKVX NSCLC): > 100 µM
TGI (SN12C renal): > 100 µM
TGI (SF-268 CNS): > 100 µM
TGI (CCRF-CEM leukemia): > 100 µM
TGI (BT-549 breast): > 100 µM
TGI (MDA-N): > 100 µM
TGI (HOP-62 NSCLC): > 100 µM
TGI (MALME-3M melanoma): > 100 µM
TGI (MDA-MB-231 breast): > 100 µM
TGI (RXF 393 renal): > 100 µM
TGI (SR leukemia): > 100 µM
TGI (M14 melanoma): > 100 µM
TGI (SK-MEL-2 melanoma): > 100 µM
TGI (KM12 colon): > 100 µM
TGI (SW-620 colon): > 100 µM
TGI (SNB-19 CNS): > 100 µM
TGI (OVCAR-8 ovarian): > 100 µM
TGI (NCI-H226 lung): > 100 µM
TGI (NCI-H23 lung): > 100 µM
TGI (SK-MEL-5 melanoma): > 100 µM
TGI (HL-60(TB) leukemia): > 100 µM
TGI (OVCAR-3 ovarian): > 100 µM
TGI (MCF7 breast): > 100 µM
TGI (DU-145 prostate): > 100 µM
TGI (HOP-92 NSCLC): > 100 µM
TGI (UACC-257 melanoma): > 100 µM
TGI (T-47D breast): > 100 µM
TGI (IGROV1 ovarian): > 100 µM
TGI (HT29 colon): > 100 µM
TGI (NCI/ADR-RES ovarian): > 100 µM
TGI (NCI-H460 lung): > 100 µM
TGI (LOX IMVI melanoma): > 100 µM
TGI (SF-539 CNS): > 100 µM
TGI (SF-295 CNS): > 100 µM
TGI (MDA-MB-435): > 100 µM
TGI (SK-OV-3 ovarian): > 100 µM
TGI (HCC-2998 colon): > 100 µM
TGI (HCT-116 colon): > 100 µM
TGI (CAKI-1 renal): > 100 µM
TGI (OVCAR-5 ovarian): > 100 µM
TGI (RPMI-8226 leukemia): > 100 µM
TGI (UO-31 renal): > 100 µM
TGI (HCT-15 colon): > 100 µM
TGI (MOLT-4 leukemia): > 100 µM
TGI (UACC-62 melanoma): > 100 µM
TGI (A498 renal): > 100 µM

CC(=O)N1N=C(N)CC1=O
TGI (U251 CNS): > 100 µM
TGI (OVCAR-4 ovarian): > 100 µM
TGI (786-0 renal): > 100 µM
TGI (HS 578T breast): > 100 µM
TGI (A549 NSCLC): > 100 µM
TGI (NCI-H522 lung): > 100 µM
TGI (PC-3 prostate): > 100 µM
TGI (K-562 leukemia): > 100 µM
TGI (COLO 205 colon): > 100 µM
TGI (TK-10 renal): > 100 µM
TGI (SK-MEL-28 melanoma): > 100 µM
TGI (ACHN renal): > 100 µM
TGI (EKVX NSCLC): > 100 µM
TGI (SN12C renal): > 100 µM
TGI (SF-268 CNS): > 100 µM
TGI (CCRF-CEM leukemia): > 100 µM
TGI (BT-549 breast): > 100 µM
TGI (MDA-N): > 100 µM
TGI (HOP-62 NSCLC): > 100 µM
TGI (MALME-3M melanoma): > 100 µM
TGI (MDA-MB-231 breast): > 100 µM
TGI (RXF 393 renal): > 100 µM
TGI (SR leukemia): > 100 µM
TGI (M14 melanoma): > 100 µM
TGI (SK-MEL-2 melanoma): > 100 µM
TGI (KM12 colon): > 100 µM
TGI (SW-620 colon): > 100 µM
TGI (SNB-19 CNS): > 100 µM
TGI (OVCAR-8 ovarian): > 100 µM
TGI (NCI-H226 lung): > 100 µM
TGI (NCI-H23 lung): > 100 µM
TGI (SK-MEL-5 melanoma): > 100 µM
TGI (HL-60(TB) leukemia): > 100 µM
TGI (OVCAR-3 ovarian): > 100 µM
TGI (MCF7 breast): > 100 µM
TGI (DU-145 prostate): > 100 µM
TGI (HOP-92 NSCLC): > 100 µM
TGI (UACC-257 melanoma): > 100 µM
TGI (T-47D breast): > 100 µM
TGI (IGROV1 ovarian): > 100 µM
TGI (HT29 colon): > 100 µM
TGI (NCI/ADR-RES ovarian): > 100 µM
TGI (NCI-H460 lung): > 100 µM
TGI (LOX IMVI melanoma): > 100 µM
TGI (SF-539 CNS): > 100 µM
TGI (SF-295 CNS): > 100 µM
TGI (MDA-MB-435): > 100 µM
TGI (SK-OV-3 ovarian): > 100 µM
TGI (HCC-2998 colon): > 100 µM
TGI (HCT-116 colon): > 100 µM
TGI (CAKI-1 renal): > 100 µM
TGI (SNB-75 CNS): > 100 µM
TGI (OVCAR-5 ovarian): > 100 µM
TGI (UO-31 renal): > 100 µM
TGI (HCT-15 colon): > 100 µM
TGI (MOLT-4 leukemia): > 100 µM
TGI (UACC-62 melanoma): > 100 µM
TGI (A498 renal): > 100 µM

N=c1oc2ccc(Cl)cc2cc1C(=O)NCc1ccccc1
TGI (U251 CNS): > 100 µM
TGI (OVCAR-4 ovarian): > 100 µM
TGI (786-0 renal): > 100 µM
TGI (HS 578T breast): > 80.5 µM
TGI (A549 NSCLC): > 100 µM
TGI (NCI-H522 lung): > 100 µM
TGI (PC-3 prostate): > 100 µM
TGI (K-562 leukemia): > 70.4 µM
TGI (COLO 205 colon): > 100 µM
TGI (TK-10 renal): > 100 µM
TGI (SK-MEL-28 melanoma): > 100 µM
TGI (ACHN renal): > 100 µM
TGI (EKVX NSCLC): > 100 µM
TGI (SN12C renal): > 100 µM
TGI (SF-268 CNS): > 100 µM
TGI (CCRF-CEM leukemia): > 54 µM
TGI (BT-549 breast): > 100 µM
TGI (MDA-N): > 100 µM
TGI (HOP-62 NSCLC): > 100 µM
TGI (MALME-3M melanoma): > 100 µM
TGI (MDA-MB-231 breast): > 100 µM
TGI (RXF 393 renal): > 100 µM
TGI (SR leukemia): > 100 µM
TGI (M14 melanoma): > 100 µM
TGI (SK-MEL-2 melanoma): > 100 µM
TGI (KM12 colon): > 100 µM
TGI (SW-620 colon): > 100 µM
TGI (SNB-19 CNS): > 100 µM
TGI (OVCAR-8 ovarian): > 100 µM
TGI (NCI-H226 lung): > 100 µM
TGI (NCI-H23 lung): > 100 µM
TGI (SK-MEL-5 melanoma): > 100 µM
TGI (HL-60(TB) leukemia): 36.8 µM
TGI (OVCAR-3 ovarian): > 100 µM
TGI (MCF7 breast): > 100 µM
TGI (DU-145 prostate): > 100 µM
TGI (HOP-92 NSCLC): > 100 µM
TGI (UACC-257 melanoma): > 100 µM
TGI (T-47D breast): > 100 µM
TGI (IGROV1 ovarian): > 100 µM
TGI (HT29 colon): > 100 µM
TGI (NCI/ADR-RES ovarian): > 100 µM
TGI (NCI-H460 lung): > 100 µM
TGI (LOX IMVI melanoma): > 100 µM
TGI (SF-539 CNS): > 100 µM
TGI (SF-295 CNS): > 100 µM
TGI (MDA-MB-435): > 100 µM
TGI (SK-OV-3 ovarian): > 100 µM
TGI (HCC-2998 colon): > 100 µM
TGI (HCT-116 colon): > 100 µM
TGI (CAKI-1 renal): > 100 µM
TGI (SNB-75 CNS): > 95 µM
TGI (OVCAR-5 ovarian): > 100 µM
TGI (RPMI-8226 leukemia): > 100 µM
TGI (UO-31 renal): > 100 µM
TGI (HCT-15 colon): > 100 µM
TGI (MOLT-4 leukemia): > 56.7 µM
TGI (UACC-62 melanoma): > 100 µM
TGI (A498 renal): > 100 µM
